The values that follow come from US5705523A, “Pyridine- and imidazole-derived agents for cardiovascular diseases” (Pfizer Inc., priority 1991, dated 1998).

SMILES strings stand for the structures.

Assay [1] addresses T1, thromboxane A2 synthetase (Homo sapiens, UniProt P24557).
T1 construct: Indomethacin pretreated human platelet microsomes; from tissue; host or cells: human platelets (microsomes)
T1 sequence (P24557 1-533): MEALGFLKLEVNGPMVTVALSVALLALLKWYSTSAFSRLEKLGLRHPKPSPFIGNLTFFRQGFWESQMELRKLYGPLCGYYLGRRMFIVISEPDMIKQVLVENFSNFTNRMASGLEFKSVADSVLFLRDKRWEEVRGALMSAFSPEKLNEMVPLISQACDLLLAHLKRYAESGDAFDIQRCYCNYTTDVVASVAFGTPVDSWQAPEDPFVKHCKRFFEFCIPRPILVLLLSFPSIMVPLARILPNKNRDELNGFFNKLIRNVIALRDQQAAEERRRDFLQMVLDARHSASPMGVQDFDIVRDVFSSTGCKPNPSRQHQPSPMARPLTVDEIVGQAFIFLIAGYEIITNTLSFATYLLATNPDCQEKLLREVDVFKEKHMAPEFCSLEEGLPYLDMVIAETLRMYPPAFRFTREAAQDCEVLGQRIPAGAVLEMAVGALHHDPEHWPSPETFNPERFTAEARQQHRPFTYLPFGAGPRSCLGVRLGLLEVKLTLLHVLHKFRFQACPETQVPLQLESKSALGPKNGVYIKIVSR
The assay is described as follows: Thromboxane A2 (T×A2) synthetase inhibition (T×B2 production, radioimmunoassay). It counts as biochemical. As to conditions: human platelet microsomes, in vitro; read-out: T×A2 synthetase inhibitory activity: IC50. The protocol:
Ram seminal vesicle microsomes (Biochemistry, 1971, 10, 2372) are incubated with arachidonic acid (100.0 μM) for 1.0 minute at 22° C. to produce endoperoxide (PGH2). Aliquots of PGH2 are incubated for 30 seconds at 22° C. with pig aorta microsomes (Nature, 1976, 263, 663) and the reaction terminated with five volumes of ethanol. PGI2 production is assessed by measuring its stable breakdown product 6-keto-PGF1α, using a specific radioimmunoassay.
Indomethacin pretreated human platelet microsomes (Science 1976, 193, 163) are incubated for 2 minutes at 0° C. with PGH2 (produced as in 1) and the reaction terminated with 5 volumes of ethanol. T×A2 production is assessed by measuring its stable metabolite T×B2,using a specific radioimmunoassay.
The test compound is pre-incubated with enzyme for 5 minutes, and its ability to inhibit the thromboxane A2 synthetase enzyme is measured as the reduction of T×A2 (T×B2) production.

Assay [2] concerns the target T2, thromboxane A2 receptor (Rattus norvegicus, UniProt P34978).
T2 construct: Spirally cut rat aortic strips; from tissue; host or cells: rat aorta (spirally cut strips)
T2 sequence (P34978 1-341): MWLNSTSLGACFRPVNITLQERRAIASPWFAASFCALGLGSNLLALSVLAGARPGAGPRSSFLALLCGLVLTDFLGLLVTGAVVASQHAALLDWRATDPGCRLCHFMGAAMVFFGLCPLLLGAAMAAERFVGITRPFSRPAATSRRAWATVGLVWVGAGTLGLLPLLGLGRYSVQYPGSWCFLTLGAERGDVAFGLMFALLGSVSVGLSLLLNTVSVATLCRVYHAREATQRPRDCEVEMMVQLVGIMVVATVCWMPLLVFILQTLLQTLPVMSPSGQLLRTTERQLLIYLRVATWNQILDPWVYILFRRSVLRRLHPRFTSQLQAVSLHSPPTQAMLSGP
The assay is described as follows: Thromboxane A2 receptor antagonism (U-46619 contraction of rat aortic strips). It counts as cell-based. As to conditions: agonist U-46619, in vitro, read-out: T×A2 antagonist activity: pA2 (converted). The protocol:
Spirally cut rat aortic strips, mounted for isometric tension recording in 20 ml organ baths, are bathed in Krebs-bicarbonate solution at 37° C. Following an incubation period of 2 hours under 1 gram resting tension, the tissues are pre-treated with U-46619 (a thromboxane A2 receptor agonist) for 10 minutes, then washed and the tissues allowed to equilibrate for a further 1 hour. Cumulative doses of U-46619 over the range 1 nM-100 nM are sequentially included in the bathing fluid and increases in the tissue tension noted.
The test compounds are incubated with the tissue for 15 minutes prior to repeating the cumulative dosing of U-46619 and the ability of the compound to antagonize the thromboxane A2 receptor is determined from the dose-response curves for U-46619 in the presence of varied concentrations of the test compound.

For assay [3], the system named is PGI2 synthetase. Particulars: pre-incubation with pig aorta microsomes; result in words; cited from earlier work.

In the case of `O=C(O)CCc1cc(CCNS(=O)(=O)c2ccc(Br)cc2)cc(Cc2cccnc2)c1` [Example 49, 3-{3-[2-(4-Bromophenylsulphonylamino)ethyl]-5-(3-pyridylmethyl)phenyl}propanoic acid], the IC50 (in general, the concentration that inhibits the measured activity by half) in assay [1] worked out at 49 nM. In addition, in assay [2], the Kb is 0.363 nM. The like results for `O=C(O)CCc1cc(CCNS(=O)(=O)c2ccccc2)cc(Oc2cccnc2)c1` [Example 61, 3-[3(2-Phenylsulphonylamino)ethyl-5-(3-pyridyloxy)phenyl]propanoic acid] were, in that order, 38 nM and 0.871 nM. On to `CC(c1cccnc1)c1cc(CCNS(=O)(=O)c2ccccc2)cc(CCC(=O)O)c1` (stereo not shown) [Example 84, 3-{3-(2-Phenylsulphonylamino)ethyl-5-[1-(3-pyridyl)ethyl]phenyl}propanoic acid], for which the IC50 in assay [1] came out at 44 nM. Moreover, the Kb in assay [2] was 0.186 nM. On to `O=C(O)CCc1cc(CCNS(=O)(=O)c2ccc(Cl)cc2)cc(Cc2cccnc2)c1` [Example 48, 3-{3-[2-(4-Chlorophenylsulphonylamino)ethyl]-5-(3-pyridylmethyl)phenyl}propanoic acid], for which the IC50 in assay [1] was found to be 39 nM. In assay [2], the Kb is 0.407 nM. The corresponding values for `CC(c1cccnc1)c1cc(CCNS(=O)(=O)c2ccc(Cl)cc2)cc(CCC(=O)O)c1` (stereo not shown) [Example 85, 3-{3-[2-(4-Chlorophenylsulphonylamino)ethyl]-5-[1-(3-pyridyl)ethyl]phenyl}propanoic acid] are 38 nM and 0.0692 nM. As for `C=C(c1cccnc1)c1cc(CCNS(=O)(=O)c2ccc(Cl)cc2)cc(CCC(=O)O)c1` [Example 83, 3-{3-[2-(4-Chlorophenylsulphonylamino)ethyl]-5-[1-(3-pyridyl)ethenyl]phenyl}propanoic acid], the IC50 in assay [1] came out at 53 nM. For the same compound, the Kb in assay [2] was 0.0977 nM. Regarding `CCCCCC(/C=C/C=C\C/C=C\C/C=C\CCCC(=O)O)OO` (stereo not shown) [15-hydroperoxyarachidonic acid], the “inhibition of PGI2 production by PGI2 synthetase” value in assay [3] is given as “completely inhibited”.

In the case of `C=C(c1cccnc1)c1cc(CCNS(=O)(=O)c2ccccc2)cc(CCC(=O)O)c1` [Example 82, 3-{3-(2-Phenylsulphonylamino)ethyl-5-[1-(3-pyridyl)ethenyl]phenyl}propanoic acid], the IC50 in assay [1] turned out to be 50 nM. Moreover, the Kb in assay [2] was 0.759 nM.

In the case of `O=C(O)CCc1cc(CCNS(=O)(=O)c2ccc(Cl)cc2)cc(Oc2cccnc2)c1` [Example 62, 3-{3-[2-(4-Chlorophenylsulphonylamino)ethyl]-5-(3-pyridyloxy)phenyl}propanoic acid], the IC50 in assay [1] was 37 nM. Moreover, the Kb in assay [2] was 0.398 nM. In the case of `CC(O)(c1cccnc1)c1cc(CCNS(=O)(=O)c2ccc(Cl)cc2)cc(CCC(=O)O)c1` (stereo not shown) [Example 67], in assay [1], the IC50 came to 61 nM. For the same compound, the Kb in assay [2] is 0.851 nM.
